Structures can show the parent of a compound that is named as a salt.
tested on: Human WB (90%) CD69; assay: Human WB (90%) CD69; format: cell-based; settings: read-out: Human WB (90%) CD69 IC50 (nM); human whole blood (90%), CD69 readout

SMILES | IC50 [nM]
CC(C)N1CCN(c2ccc(-c3cc(N4CCN(C(C)C)CC4)c4nc(-c5ccc(S(C)(=O)=O)cc5)n(C)c4c3)cc2)CC1 [Example 1, 4-(4-isopropylpiperazin-1-yl)-6-(4-(4-isopropylpiperazin-1-yl)phenyl)-1-methyl-2-(4-(methylsulfonyl)phenyl)-1H-benzo[d]imidazole] | 77
CC(C)N1CCN(c2ccc(-c3cc(N(C)CCN(C)C)c4nc(-c5ccc(S(C)(=O)=O)cc5)n(C)c4c3)cc2)CC1 [Example 2, N1-(6-(4-(4-isopropylpiperazin-1-yl)phenyl)-1-methyl-2-(4-(methylsulfonyl)phenyl)-1H-benzo[d]imidazol-4-yl)-N^1,N^2,N^2-trimethylethane-1,2-diamine] | 199
CC(C)N1CCN(c2ccc(-c3cc(NCCN4CCCC4)c4nc(-c5ccc(S(C)(=O)=O)cc5)n(C)c4c3)cc2)CC1 [Example 3, 6-(4-(4-isopropylpiperazin-1-yl)phenyl)-1-methyl-2-(4-(methylsulfonyl)phenyl)-N-(2-(pyrrolidin-1-yl)ethyl)-1H-benzo[d]imidazol-4-amine] | 87
Cc1nc2c(NCCN3CCOCC3)cc(-c3ccc(N4CCN(C(C)C)CC4)cc3)cc2n1C [Example 4, 6-(4-(4-isopropylpiperazin-1-yl)phenyl)-1,2-dimethyl-N-(2-morpholinoethyl)-1H-benzo[d]imidazol-4-amine] | 106
COc1ccc(-c2nc3c(NCCN4CCOCC4)cc(-c4ccc(N5CCN(C(C)C)CC5)cc4)cc3n2C)cc1OC [Example 5, 2-(3,4-dimethoxyphenyl)-6-(4-(4-isopropylpiperazin-1-yl)phenyl)-1-methyl-N-(2-morpholinoethyl)-1H-benzo[d]imidazol-4-amine] | 94
Cc1cc(C)nc(Nc2cc(-c3ccc(N4CCN(C(C)C)CC4)cc3)cc3c2nc(C)n3C)c1 [Example 6, N-(4,6-dimethylpyridin-2-yl)-6-(4-(4-isopropylpiperazin-1-yl)phenyl)-1,2-dimethyl-1H-benzo[d]imidazol-4-amine] | 25
Cc1nc2c(NCCN3CCC(F)(F)CC3)cc(-c3ccc(N4CCN(C(C)C)CC4)cc3)cc2n1C [Example 7, N-(2-(4,4-difluoropiperidin-1-yl)ethyl)-6-(4-(4-isopropylpiperazin-1-yl)phenyl)-1,2-dimethyl-1H-benzo[d]imidazol-4-amine] | 923
COc1cccc(CCNc2cc(-c3ccc(N4CCN(C(C)C)CC4)cc3)cc3c2nc(C)n3C)c1OC [Example 8, N-(2,3-dimethoxyphenethyl)-6-(4-(4-isopropylpiperazin-1-yl)phenyl)-1,2-dimethyl-1H-benzo[d]imidazol-4-amine, TFA] | 1560
Cc1nc2c(NC3CCS(=O)(=O)CC3)cc(-c3ccc(N4CCN(C(C)C)CC4)cc3)cc2n1C [Example 9, 4-((6-(4-(4-isopropylpiperazin-1-yl)phenyl)-1,2-dimethyl-1H-benzo[d]imidazol-4-yl)amino)tetrahydro-2H-thiopyran 1,1-dioxide] | 1120
Cc1nc2c(NCCc3ccc(S(C)(=O)=O)cc3)cc(-c3ccc(N4CCN(C(C)C)CC4)cc3)cc2n1C [Example 10, 6-(4-(4-isopropylpiperazin-1-yl)phenyl)-1,2-dimethyl-N-(4-(methylsulfonyl)phenethyl)-1H-benzo[d]imidazol-4-amine] | 813
Cc1nc2c(NCc3ccc(S(C)(=O)=O)cc3)cc(-c3ccc(N4CCN(C(C)C)CC4)cc3)cc2n1C [Example 11, 6-(4-(4-isopropylpiperazin-1-yl)phenyl)-1,2-dimethyl-N-(4-(methylsulfonyl)benzyl)-1H-benzo[d]imidazol-4-amine] | 918
Cc1nc2c(NCc3cccc(S(C)(=O)=O)c3)cc(-c3ccc(N4CCN(C(C)C)CC4)cc3)cc2n1C [Example 12, 6-(4-(4-isopropylpiperazin-1-yl)phenyl)-1,2-dimethyl-N-(3-(methylsulfonyl)benzyl)-1H-benzo[d]imidazol-4-amine] | 971
Cc1nc2c(NC3CCN(S(C)(=O)=O)CC3)cc(-c3ccc(N4CCN(C(C)C)CC4)cc3)cc2n1C [Example 13, 6-(4-(4-isopropylpiperazin-1-yl)phenyl)-1,2-dimethyl-N-(1-(methylsulfonyl)piperidin-4-yl)-1H-benzo[d]imidazol-4-amine] | 1220
Cc1nc2c(NCc3ccc(CN4CCOCC4)cc3)cc(-c3ccc(N4CCN(C(C)C)CC4)cc3)cc2n1C [Example 14, 6-(4-(4-isopropylpiperazin-1-yl)phenyl)-1,2-dimethyl-N-(4-(morpholinomethyl)benzyl)-1H-benzo[d]imidazol-4-amine] | 31
Cc1ccc(Nc2cc(-c3ccc(N4CCN(C(C)C)CC4)cc3)cc3c2nc(C)n3C)cn1 [Example 15, 6-(4-(4-isopropylpiperazin-1-yl)phenyl)-1,2-dimethyl-N-(6-methylpyridin-3-yl)-1H-benzo[d]imidazol-4-amine] | 526
Cc1nc2c(Nc3ccc(N4CCOCC4)cn3)cc(-c3ccc(N4CCN(C(C)C)CC4)cc3)cc2n1C [Example 16, 6-(4-(4-isopropylpiperazin-1-yl)phenyl)-1,2-dimethyl-N-(5-morpholinopyridin-2-yl)-1H-benzo[d]imidazol-4-amine] | 207

SMILES | IC50 [nM]
Cc1nc2c(Nc3ccc(N4CCOCC4)nn3)cc(-c3ccc(N4CCN(C(C)C)CC4)cc3)cc2n1C [Example 17, 6-(4-(4-isopropylpiperazin-1-yl)phenyl)-1,2-dimethyl-N-(6-morpholinopyridazin-3-yl)-1H-benzo[d]imidazol-4-amine, TFA] | 137
Cc1nc2c(Nc3ccc(N4CCOCC4)nc3)cc(-c3ccc(N4CCN(C(C)C)CC4)cc3)cc2n1C [Example 18, 6-(4-(4-isopropylpiperazin-1-yl)phenyl)-1,2-dimethyl-N-(6-morpholinopyridin-3-yl)-1H-benzo[d]imidazol-4-amine] | 728
Cc1cc(Nc2cc(-c3ccc(N4CCN(C(C)C)CC4)cc3)cc3c2nc(C)n3C)cnc1C [Example 19, N-(5,6-dimethylpyridin-3-yl)-6-(4-(4-isopropylpiperazin-1-yl)phenyl)-1,2-dimethyl-1H-benzo[d]imidazol-4-amine] | 452
Cc1nc2c(Nc3cnccn3)cc(-c3ccc(N4CCN(C(C)C)CC4)cc3)cc2n1C [Example 20, 6-(4-(4-isopropylpiperazin-1-yl)phenyl)-1,2-dimethyl-N-(pyrazin-2-yl)-1H-benzo[d]imidazol-4-amine] | 1270
Cc1nc2c(Nc3ncccn3)cc(-c3ccc(N4CCN(C(C)C)CC4)cc3)cc2n1C [Example 21, 6-(4-(4-isopropylpiperazin-1-yl)phenyl)-1,2-dimethyl-N-(pyrimidin-2-yl)-1H-benzo[d]imidazol-4-amine] | 1640
Cc1ccc(Nc2cc(-c3ccc(N4CCN(C(C)C)CC4)cc3)cc3c2nc(C)n3C)nc1 [Example 22, 6-(4-(4-isopropylpiperazin-1-yl)phenyl)-1,2-dimethyl-N-(5-methylpyridin-2-yl)-1H-benzo[d]imidazol-4-amine] | 762
COc1ccnc(Nc2cc(-c3ccc(N4CCN(C(C)C)CC4)cc3)cc3c2nc(C)n3C)c1 [Example 23, 6-(4-(4-isopropylpiperazin-1-yl)phenyl)-N-(4-methoxypyridin-2-yl)-1,2-dimethyl-1H-benzo[d]imidazol-4-amine, TFA] | 370
Cc1ccc(Nc2cc(-c3ccc(N4CCN(C(C)C)CC4)cc3)cc3c2nc(C)n3C)nn1 [Example 24, 6-(4-(4-isopropylpiperazin-1-yl)phenyl)-1,2-dimethyl-N-(6-methylpyridazin-3-yl)-1H-benzo[d]imidazol-4-amine] | 600
CC(C)c1nc2c(NCCN3CCOCC3)cc(-c3ccc(N4CCN(C(C)C)CC4)cc3)cc2n1C [Example 25, 2-isopropyl-6-(4-(4-isopropylpiperazin-1-yl)phenyl)-1-methyl-N-(2-morpholinoethyl)-1H-benzo[d]imidazol-4-amine, 2 TFA] | 530
Cc1cc(C)nc(Nc2cc(-c3ccc(N4CCN(C(C)C)CC4)cc3)cc3c2nc(C(C)C)n3C)c1 [Example 26, N-(4,6-dimethylpyridin-2-yl)-2-isopropyl-6-(4-(4-isopropylpiperazin-1-yl)phenyl)-1-methyl-1H-benzo[d]imidazol-4-amine] | 578
Cc1cc(C)nc(Nc2cc(-c3ccc(N4CCN(C(C)C)CC4)cc3)cc3c2nc(C2CCN(S(C)(=O)=O)CC2)n3C)c1 [Example 27, N-(4,6-dimethylpyridin-2-yl)-6-(4-(4-isopropylpiperazin-1-yl)phenyl)-1-methyl-2-(1-(methylsulfonyl)piperidin-4-yl)-1H-benzo[d]imidazol-4-amine] | 284
CC(C)N1CCN(c2ccc(-c3cc(NCCN4CCN(S(C)(=O)=O)CC4)c4nc(-c5ccc(S(C)(=O)=O)cc5)n(C)c4c3)cc2)CC1 [Example 28, 6-(4-(4-isopropylpiperazin-1-yl)phenyl)-1-methyl-2-(4-(methylsulfonyl)phenyl)-N-(2-(4-(methylsulfonyl)piperazin-1-yl)ethyl)-1H-benzo[d]imidazol-4-amine, 2 TFA] | 807
Cc1cc(C)nc(Nc2cc(-c3ccc(N4CCN(C(C)C)CC4)cc3)cc3c2nc(-c2ccc(S(C)(=O)=O)cc2)n3C)c1 [Example 29, N-(4,6-dimethylpyridin-2-yl)-6-(4-(4-isopropylpiperazin-1-yl)phenyl)-1-methyl-2-(4-(methylsulfonyl)phenyl)-1H-benzo[d]imidazol-4-amine] | 340
CC(C)N1CCN(c2ccc(-c3cc(NCCN4CCOCC4)c4nc(C5CCN(S(C)(=O)=O)CC5)n(C)c4c3)cc2)CC1 [Example 30, 6-(4-(4-isopropylpiperazin-1-yl)phenyl)-1-methyl-2-(1-(methylsulfonyl)piperidin-4-yl)-N-(2-morpholinoethyl)-1H-benzo[d]imidazol-4-amine] | 374
CC(C)N1CCN(c2ccc(-c3cc(NCCN4CCOCC4)c4nc(C5CC5)n(C)c4c3)cc2)CC1 [Example 31, 2-cyclopropyl-6-(4-(4-isopropylpiperazin-1-yl)phenyl)-1-methyl-N-(2-morpholinoethyl)-1H-benzo[d]imidazol-4-amine, 2 TFA] | 302
